Measured values taken from article PMC8957246, “Synthesis and diverse biological activity profile of triethylammonium isatin-3-hydrazones” (ADMET & DMPK, 2022).
Read-outs that look alike come from different tables or passages of the source. Marks after values point to notes of the source that are not given here.

Legend:
[1] = test system: activated partial thromboplastin time (intrinsic coagulation pathway); experiment: Anticoagulant activity, clotting test APTT; parameters: species or system human; settings: concentration 5×10^–4 g/mL; median (25-75 percentiles)
Protocol: The in vitro experiments were performed using the blood of healthy male donors aged 18-24 years (total 54 donors). The study was approved by the Ethics Committee of Federal State Budgetary Educational Institution of Higher Education at the Bashkir State Medical University of the Ministry of Health of Russian Federation (No.2 dated 17.10.2012). Informed consent was obtained from all participants before blood sampling. The blood was collected from the cubital vein using the system of vacuum blood collection BD Vacutainer® (Becton, Dickinson and Company, USA). A 3.8 % sodium citrate solution in a 9:1 ratio was used as a venous blood stabiliser. The study of the effect on platelet aggregation was performed using the Born method using the aggregometer «AT-02» (SPC Medtech, Russia). The assessment of antiplatelet activity of the studied compounds and reference preparations was started with the final concentration of 2×10^–3 mol/L. Adenosine diphosphate (ADP; 20 μg/mL) and collagen (5 mg/mL) manufactured by Tehnologia-Standart Company, Russia, were used as inducers of aggregation. The study on the anticoagulant activity was performed by standard recognised clotting tests using the optical two-channel automatic analyser of blood coagulation Solar CGL 2110 (CJSC SOLAR, Belarus). The following parameters were studied: activated partial thromboplastin time (APTT), prothrombin time (PT) and fibrinogen concentrations according to the Clauss method. The determination of anticoagulant activity of the studied compounds and reference preparation was performed in a concentration of 5×10^–4 g/mL using the reagents manufactured by Tehnologia-Standart Company (Barnaul, Russia). The results of the study were processed using the statistical package Statistica 10.0 (StatSoft Inc, USA). The Shapiro–Wilk’s test was used to check the normality of actual data distribution. The form of distribution of the data obtained differed from the normal one; therefore, non-parametric methods were used for further analysis. The data were presented as medians and 25 and 75 percentiles. Analysis of variance was conducted using Kruskal–Wallis test. A p value of 0.05 was considered statistically significant.

[2] = test system: Fusarium oxysporum IBPPM 543; experiment: Fungicidal activity, radial growth inhibition, F. oxysporum; type: cell-based; settings: for EC50: Fusarium oxysporum, IBPPM543, 168 h, day 7, EC50 = 50C/I, read-out: EC50, μg/mL at day 7
From the text: (§1) Plant pathogenic bacterial strains Micrococcus luteus B-109, Pectobacterium atrosepticum 1043, Pectobacterium carotovorum subsp. carotovorum MI, Pseudomonas fluorescens EL-2.1, and Xanthomonas campestris B-610 and fungal strain Fusarium oxysporum IBPPM 543 were obtained from the specialized scientific culture collection of IBPPM RAS (WFCC no. 975, WDCM no. 1021) (CM IBPPM). Pathogenic fungus Phytophthora cactorum VKM F-985 provided by the All-Russian Collection of Microorganisms (VKM) and deposited at A.E. Favorsky Irkutsk Institute of Chemistry, SB RAS, was also used as test organism. Bacteria M. luteus, P. carotovorum subsp. carotovorum, P. atrosepticum, and Ps. fluorescens were grown in meat-peptone medium (BP), and X. campestris was grown in the medium with glucose, yeast extract, and calcium carbonate (GYCa). Solid media contained Bacto agar (18 g/L); pH was adjusted to 7.2-7.4. All bacterial cultures were grown at 28°C. The mycelial cultures of F. oxysporum and P. cactorum were grown on a glucose-peptone-yeast (GPY) nutrient medium at 27 °C. For inoculum preparation, both fungal strains were initially grown on the agar GPY in Petri dishes and then transferred into the seed medium by punching out 5 mm of the agar plate culture with a self-designed cutter.
For the fungicidal activity analysis, radial growth (colony diameters) of the fungi on a solid medium in the absence and in the presence of the compounds 3a,c-g solutions at various concentrations were compared. The method consisted of the following: sterile, melted and then cooled to about 60°C GPY agar medium (20.0 ml) was mixed with the precisely measured volumes of the solutions under question, and poured into a sterile Petri dish (90 mm i.d.). After solidification of GPY agar, the media were inoculated by the fungus using 10-day-old cultures of F. oxysporum or P. cactorum. The inoculation was done by transferring a 5-mm (i.d.) GPY-agar block covered with mycelium to the center of the Petri dish followed by incubation in a thermostat at 27°C. The fungicidal effect was scored by the size of mycelium colony on a Petri dish compared to the control without fungicidal admixtures to GPY agar. Each treatment was performed in at least four replicates in two independent experiments. The observation period ended when the control Petri dish was filled with mycelium (usually after 12 days). The inhibition of the phytopathogen colony growth by the compounds 3a,c-g or fludioxonil solutions was calculated as a percentage by which the mycelium radial propagation was decreased compared to the unaffected control, the latter was taken as 100 % of growth (or zero percent of inhibition). The EC50 value was calculated as the compound concentration at which the radial growth of the fungus colony was decreased by 50 % relative to the non-fungicidal control, according to the formula EC50 = 50C/I based on the approach developed e.g., in [34, 35].
(§2) The solutions of tested compounds were prepared with a concentration of 2 mmol/l (stock solution). For comparison, test compounds were also commonly applied disinfecting agents and antibiotics.

Micrococcus luteus B-109 = experiment: Bactericidal activity, agar diffusion, M. luteus; type: cell-based; settings: Micrococcus luteus, B109, 2 mM/L
From the text: as §1
(§3) Antibacterial and antifungal activities of the compounds were explored using the agar diffusion method and the technique of a phytopathogen radial growth inhibition. Method of diffusion in agar (measuring the diameter of growth inhibition zones) was used for determining the bactericidal activity. The 6-mm wells were made in ager medium (GYCa for Xanthomonas campestris or BP for other bacteria). Bacterial suspensions were distributed over the agar surface, and the tested compound's solution (150 μl) was added to each well. The width of growth inhibition zones around the wells was determined after incubation for 36-40 h.
as §2

[3] = test system: Pectobacterium atrosepticum 1043; experiment: Bactericidal activity, agar diffusion, P. atrosepticum; type: cell-based; settings: Pectobacterium atrosepticum, 1043, 2 mM/L
From the text: as §1, §3, §2

[4] = test system: Pseudomonas fluorescens EL-2.1; experiment: Bactericidal activity, agar diffusion, Ps. fluorescens; type: cell-based; settings: Pseudomonas fluorescens, EL2.1, 2 mM/L
From the text: as §1, §3, §2

[5] = 150 μl per well, 36-40 h, read-out: width of the inhibition zone
[6] = read-out: Inhibition zone width (mm), not less

SMILES: CC[N+](CC)(CC)CC(=O)N/N=C1\C(=O)N(Cc2cc(C(C)(C)C)c(O)c(C(C)(C)C)c2)c2cccc(Br)c21 [Compound 3e, 2-(2-(1-(3,5-Di-tert-butyl-4-hydroxybenzyl)-4-bromo-2-oxoindolin-3-ylidene)hydrazinyl)-N,N,N-triethyl-2-oxoethanammonium bromide]
- APTT, % of control [1]: +3.2 (2.8-5.4) ^‡ % of control
- Inhibition value, I (%) ([2]; C 6.81 μg/mL, age of the fungus 3 days): 11%
- Inhibition value, I (%) ([2]; C 6.81 μg/mL, age of the fungus 5 days): 13%
- Inhibition value, I (%) ([2]; C 6.81 μg/mL, age of the fungus 7 days): 19%
- Inhibition value, I (%) ([2]; C 6.81 μg/mL, age of the fungus 9 days): 6%
- Inhibition value, I (%) ([2]; C 13.62 μg/mL, age of the fungus 3 days): 14%
- Inhibition value, I (%) ([2]; C 13.62 μg/mL, age of the fungus 5 days): 18%
- Inhibition value, I (%) ([2]; C 13.62 μg/mL, age of the fungus 7 days): 22%
- Inhibition value, I (%) ([2]; C 13.62 μg/mL, age of the fungus 9 days): 9%
- Inhibition value, I (%) ([2]; C 27.24 μg/mL, age of the fungus 3 days): 19%
- Inhibition value, I (%) ([2]; C 27.24 μg/mL, age of the fungus 5 days): 19%
- Inhibition value, I (%) ([2]; C 27.24 μg/mL, age of the fungus 7 days): 25%
- Inhibition value, I (%) ([2]; C 27.24 μg/mL, age of the fungus 9 days): 20%
- Inhibition value, I (%) ([2]; C 40.86 μg/mL, age of the fungus 3 days): 40%
- Inhibition value, I (%) ([2]; C 40.86 μg/mL, age of the fungus 5 days): 37%
- Inhibition value, I (%) ([2]; C 40.86 μg/mL, age of the fungus 7 days): 43%
- Inhibition value, I (%) ([2]; C 40.86 μg/mL, age of the fungus 9 days): 29%
- EC50 [2]: 17.9 µg/mL
- zone of inhibition at 2000 µM (Micrococcus luteus B-109; [5]): 13 mm
- zone of inhibition at 2000 µM (Micrococcus luteus B-109; [6]): ≥ 13 mm
- zone of inhibition at 2000 µM [3, 5]: 15 mm
- zone of inhibition at 2000 µM [3, 6]: ≥ 15 mm
- zone of inhibition at 2000 µM [4, 5]: 9 mm
- zone of inhibition at 2000 µM [4, 6]: ≥ 9 mm

SMILES: CC[N+](CC)(CC)CC(=O)N/N=C1\C(=O)N(Cc2cc(C(C)(C)C)c(O)c(C(C)(C)C)c2)c2c1ccc(C)c2C [Compound 3d, 2-(2-(1-(3,5-Di-tert-butyl-4-hydroxybenzyl)-6,7-dimethyl-2-oxoindolin-3-ylidene)hydrazinyl)-N,N,N-triethyl-2-oxoethanammonium bromide]
- APTT, % of control [1]: +4.8 (3.7-6.9) ^‡ % of control
- Inhibition value, I (%) ([2]; C 6.30 μg/mL, age of the fungus 3 days): 0%
- Inhibition value, I (%) ([2]; C 6.30 μg/mL, age of the fungus 5 days): 5%
- Inhibition value, I (%) ([2]; C 6.30 μg/mL, age of the fungus 7 days): 5%
- Inhibition value, I (%) ([2]; C 6.30 μg/mL, age of the fungus 9 days): 0%
- Inhibition value, I (%) ([2]; C 12.60 μg/mL, age of the fungus 3 days): 8%
- Inhibition value, I (%) ([2]; C 12.60 μg/mL, age of the fungus 5 days): 12%
- Inhibition value, I (%) ([2]; C 12.60 μg/mL, age of the fungus 7 days): 13%
- Inhibition value, I (%) ([2]; C 12.60 μg/mL, age of the fungus 9 days): 2%
- Inhibition value, I (%) ([2]; C 25.20 μg/mL, age of the fungus 3 days): 17%
- Inhibition value, I (%) ([2]; C 25.20 μg/mL, age of the fungus 5 days): 15%
- Inhibition value, I (%) ([2]; C 25.20 μg/mL, age of the fungus 7 days): 20%
- Inhibition value, I (%) ([2]; C 25.20 μg/mL, age of the fungus 9 days): 8%
- Inhibition value, I (%) ([2]; C 37.80 μg/mL, age of the fungus 3 days): 22%
- Inhibition value, I (%) ([2]; C 37.80 μg/mL, age of the fungus 5 days): 18%
- Inhibition value, I (%) ([2]; C 37.80 μg/mL, age of the fungus 7 days): 24%
- Inhibition value, I (%) ([2]; C 37.80 μg/mL, age of the fungus 9 days): 9%
- EC50 [2]: 48.5 µg/mL
- zone of inhibition at 2000 µM (Micrococcus luteus B-109; [5]): 8 mm
- zone of inhibition at 2000 µM (Micrococcus luteus B-109; [6]): ≥ 8 mm
- zone of inhibition at 2000 µM [3, 5]: 8 mm
- zone of inhibition at 2000 µM [3, 6]: ≥ 8 mm
- zone of inhibition at 2000 µM [4, 5]: 9 mm
- zone of inhibition at 2000 µM [4, 6]: ≥ 9 mm
